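Values below derive from 48-hour exposures of cells grown in 96-well plates, with endpoints linearly interpolated between the two concentrations bracketing the appropriate inhibition level. TGI marks complete inhibition of growth.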
Key:
Test in all cases: NCI-60 cell line screen, 48 h
LOX IMVI melanoma = tested on: LOX IMVI melanoma
SF-268 CNS = tested on: SF-268 CNS
786-0 renal = tested on: 786-0 renal
ACHN renal = tested on: ACHN renal
U251 CNS = tested on: U251 CNS
MDA-N = tested on: MDA-N
HCT-116 colon = tested on: HCT-116 colon
RXF 393 renal = tested on: RXF 393 renal
COLO 205 colon = tested on: COLO 205 colon
SN12C renal = tested on: SN12C renal
HOP-62 NSCLC = tested on: HOP-62 NSCLC

SMILES: Cc1cccc(N2C(=O)C3c4[nH]c5ccccc5c4C4CCC(C(C)(C)C)CC4C3C2=O)c1 (configuration not stated)
- TGI (LOX IMVI melanoma): 12.9 µM
- TGI (SF-268 CNS): 13.7 µM
- TGI (786-0 renal): 12.2 µM
- TGI (ACHN renal): 17.7 µM
- TGI (U251 CNS): 47.8 µM
- TGI (MDA-N): 30.7 µM
- TGI (HCT-116 colon): 21.2 µM
- TGI (RXF 393 renal): 26.3 µM
- TGI (COLO 205 colon): 24.2 µM
- TGI (SN12C renal): 30.5 µM
- TGI (HOP-62 NSCLC): 13.3 µM

SMILES: CCOC(=O)C(NC(=O)c1ccccc1)(N1CCN(c2cc3c(cc2F)c(=O)c(C(=O)O)cn3CC)CC1)C(F)(F)F (configuration not stated)
- TGI (LOX IMVI melanoma): 35.4 µM
- TGI (SF-268 CNS): > 100 µM
- TGI (786-0 renal): > 100 µM
- TGI (ACHN renal): > 100 µM
- TGI (U251 CNS): > 100 µM
- TGI (MDA-N): > 100 µM
- TGI (HCT-116 colon): > 100 µM
- TGI (RXF 393 renal): > 100 µM
- TGI (COLO 205 colon): 31.1 µM
- TGI (SN12C renal): > 100 µM
- TGI (HOP-62 NSCLC): > 100 µM

SMILES: O=c1oc2ccccc2cc1-c1cn2c(n1)sc1ccccc12
- TGI (LOX IMVI melanoma): > 100 µM
- TGI (SF-268 CNS): > 100 µM
- TGI (786-0 renal): > 100 µM
- TGI (ACHN renal): > 100 µM
- TGI (U251 CNS): > 100 µM
- TGI (MDA-N): > 100 µM
- TGI (HCT-116 colon): > 100 µM
- TGI (RXF 393 renal): > 100 µM
- TGI (COLO 205 colon): > 100 µM
- TGI (SN12C renal): > 100 µM
- TGI (HOP-62 NSCLC): > 100 µM

SMILES: c1csc(-c2ccsc2-c2cccs2)c1
- TGI (LOX IMVI melanoma): > 100 µM
- TGI (SF-268 CNS): > 100 µM
- TGI (786-0 renal): > 100 µM
- TGI (ACHN renal): > 100 µM
- TGI (U251 CNS): > 100 µM
- TGI (MDA-N): > 100 µM
- TGI (HCT-116 colon): > 100 µM
- TGI (RXF 393 renal): > 100 µM
- TGI (COLO 205 colon): > 100 µM
- TGI (SN12C renal): > 100 µM
- TGI (HOP-62 NSCLC): > 100 µM

SMILES: CCOC(=O)C(Cc1ccc(OC(=O)OC(C)(C)C)cc1)NC(=O)OC(C)(C)C (configuration not stated)
- TGI (LOX IMVI melanoma): > 100 µM
- TGI (SF-268 CNS): > 100 µM
- TGI (786-0 renal): > 100 µM
- TGI (ACHN renal): > 100 µM
- TGI (U251 CNS): > 100 µM
- TGI (MDA-N): > 100 µM
- TGI (HCT-116 colon): > 100 µM
- TGI (RXF 393 renal): > 100 µM
- TGI (COLO 205 colon): > 100 µM
- TGI (SN12C renal): > 100 µM
- TGI (HOP-62 NSCLC): > 100 µM

SMILES: CC(=O)Oc1c(N2CCCCC2)c(C(=O)c2ccccc2)c(O)c2ccn(N(C)C)c12
- TGI (LOX IMVI melanoma): 33.1 µM
- TGI (SF-268 CNS): 57.5 µM
- TGI (786-0 renal): 33.8 µM
- TGI (ACHN renal): 40.2 µM
- TGI (U251 CNS): 33.5 µM
- TGI (MDA-N): 35.3 µM
- TGI (HCT-116 colon): 22.5 µM
- TGI (RXF 393 renal): 48.4 µM
- TGI (COLO 205 colon): 33.3 µM
- TGI (SN12C renal): 33.7 µM
- TGI (HOP-62 NSCLC): 93.2 µM

SMILES: OCCN(/N=C\c1ccc2ccccc2c1)C1=NCCN1
- TGI (LOX IMVI melanoma): 30.6 µM
- TGI (SF-268 CNS): > 100 µM
- TGI (786-0 renal): 64.4 µM
- TGI (ACHN renal): > 100 µM
- TGI (U251 CNS): 73.8 µM
- TGI (MDA-N): 32.4 µM
- TGI (HCT-116 colon): 79.9 µM
- TGI (RXF 393 renal): 36.1 µM
- TGI (COLO 205 colon): 34.8 µM
- TGI (SN12C renal): > 100 µM
- TGI (HOP-62 NSCLC): > 100 µM

SMILES: C=CCN(CCNS(=O)(=O)c1ccc(C)cc1)S(=O)(=O)c1ccc(C)cc1
- TGI (LOX IMVI melanoma): > 100 µM
- TGI (SF-268 CNS): > 100 µM
- TGI (786-0 renal): > 100 µM
- TGI (ACHN renal): > 100 µM
- TGI (U251 CNS): > 100 µM
- TGI (MDA-N): > 100 µM
- TGI (HCT-116 colon): > 100 µM
- TGI (RXF 393 renal): > 100 µM
- TGI (COLO 205 colon): > 60.5 µM
- TGI (SN12C renal): > 100 µM
- TGI (HOP-62 NSCLC): > 100 µM

SMILES: CCCCCCCCCCCCCCCCOP(=O)(O)OCC(N)C(=O)O (configuration not stated)
- TGI (LOX IMVI melanoma): 28.2 µM
- TGI (SF-268 CNS): 41.6 µM
- TGI (786-0 renal): 41.6 µM
- TGI (ACHN renal): 32.7 µM
- TGI (U251 CNS): 26.5 µM
- TGI (MDA-N): 43.1 µM
- TGI (HCT-116 colon): 25.4 µM
- TGI (RXF 393 renal): 55 µM
- TGI (COLO 205 colon): 38.1 µM
- TGI (SN12C renal): 37.1 µM
- TGI (HOP-62 NSCLC): 45.9 µM

SMILES: Nc1[nH]nc2nc3ccccc3nc12
- TGI (LOX IMVI melanoma): > 100 µM
- TGI (SF-268 CNS): > 100 µM
- TGI (ACHN renal): > 100 µM
- TGI (U251 CNS): > 100 µM
- TGI (MDA-N): > 100 µM
- TGI (HCT-116 colon): > 100 µM
- TGI (RXF 393 renal): 87.9 µM
- TGI (COLO 205 colon): > 100 µM
- TGI (SN12C renal): > 100 µM
- TGI (HOP-62 NSCLC): > 100 µM

SMILES: CC(C)(C)OC(=O)CN1CCNCCN(CC(=O)OC(C)(C)C)CCNCC1
- TGI (LOX IMVI melanoma): > 100 µM
- TGI (786-0 renal): > 100 µM
- TGI (ACHN renal): > 100 µM
- TGI (U251 CNS): > 100 µM
- TGI (MDA-N): > 100 µM
- TGI (HCT-116 colon): > 100 µM
- TGI (RXF 393 renal): > 100 µM
- TGI (COLO 205 colon): > 100 µM
- TGI (SN12C renal): > 100 µM
- TGI (HOP-62 NSCLC): > 100 µM

SMILES: NCC(O)CNC(=O)c1ccc(-c2ccc(-c3ccc(C(=O)NCC(O)CN)cc3)o2)cc1 (configuration not stated)
- TGI (LOX IMVI melanoma): > 100 µM
- TGI (SF-268 CNS): 69.3 µM
- TGI (786-0 renal): 48.5 µM
- TGI (ACHN renal): > 100 µM
- TGI (U251 CNS): 42.6 µM
- TGI (MDA-N): > 100 µM
- TGI (HCT-116 colon): 52.4 µM
- TGI (RXF 393 renal): 40.1 µM
- TGI (COLO 205 colon): > 100 µM
- TGI (SN12C renal): 68.9 µM
- TGI (HOP-62 NSCLC): 74.4 µM

SMILES: CC(C)=CCc1[nH]c2ccccc2c1C1=C(O)C(=O)C(c2c(CC=C(C)C)[nH]c3ccccc23)=C(O)C1=O
- TGI (LOX IMVI melanoma): 4.22 µM
- TGI (SF-268 CNS): 7.11 µM
- TGI (786-0 renal): 10.2 µM
- TGI (ACHN renal): 3.95 µM
- TGI (U251 CNS): 6.52 µM
- TGI (MDA-N): 11.5 µM
- TGI (HCT-116 colon): 3.78 µM
- TGI (RXF 393 renal): 8.17 µM
- TGI (COLO 205 colon): 3.07 µM
- TGI (SN12C renal): 4.79 µM
- TGI (HOP-62 NSCLC): 2.61 µM

SMILES: Cc1ccc(C(=O)Nc2ccc(CP(=O)(O)O)cc2CP(=O)(O)O)cc1NC(=O)Nc1cc(C(=O)Nc2ccc(CP(=O)(O)O)cc2CP(=O)(O)O)ccc1C
- TGI (LOX IMVI melanoma): > 100 µM
- TGI (SF-268 CNS): > 100 µM
- TGI (786-0 renal): > 100 µM
- TGI (ACHN renal): > 100 µM
- TGI (U251 CNS): > 100 µM
- TGI (MDA-N): > 100 µM
- TGI (HCT-116 colon): > 100 µM
- TGI (RXF 393 renal): > 100 µM
- TGI (COLO 205 colon): > 100 µM
- TGI (SN12C renal): > 100 µM
- TGI (HOP-62 NSCLC): > 100 µM

SMILES: CSc1ccn(C2CC(F)C(CO)O2)c(=O)n1 (configuration not stated)
- TGI (LOX IMVI melanoma): > 100 µM
- TGI (SF-268 CNS): > 100 µM
- TGI (786-0 renal): > 100 µM
- TGI (ACHN renal): > 100 µM
- TGI (U251 CNS): > 100 µM
- TGI (MDA-N): > 100 µM
- TGI (HCT-116 colon): > 100 µM
- TGI (RXF 393 renal): > 100 µM
- TGI (COLO 205 colon): > 100 µM
- TGI (SN12C renal): > 100 µM
- TGI (HOP-62 NSCLC): > 100 µM

SMILES: Cc1nc(C)c(N2CCNCC2)c(=O)[nH]1
- TGI (LOX IMVI melanoma): > 100 µM
- TGI (SF-268 CNS): > 100 µM
- TGI (786-0 renal): > 100 µM
- TGI (ACHN renal): > 100 µM
- TGI (U251 CNS): > 100 µM
- TGI (MDA-N): > 100 µM
- TGI (HCT-116 colon): > 100 µM
- TGI (RXF 393 renal): > 100 µM
- TGI (COLO 205 colon): > 100 µM
- TGI (SN12C renal): > 100 µM
- TGI (HOP-62 NSCLC): > 100 µM

SMILES: Cc1c(N=Nc2ccccc2)c(C)n(C2OC(CO)C(O)C(O)C2O)c(=S)c1C#N (configuration not stated)
- TGI (LOX IMVI melanoma): 54.8 µM
- TGI (SF-268 CNS): > 100 µM
- TGI (786-0 renal): > 100 µM
- TGI (ACHN renal): > 100 µM
- TGI (U251 CNS): 87.2 µM
- TGI (MDA-N): > 100 µM
- TGI (HCT-116 colon): 46.2 µM
- TGI (RXF 393 renal): > 100 µM
- TGI (COLO 205 colon): > 100 µM
- TGI (SN12C renal): > 100 µM
- TGI (HOP-62 NSCLC): 59.6 µM

SMILES: CC(=O)Oc1ccc2c(c1)CC[C@@H]1C2[C@@H](O[N+](=O)[O-])C[C@@]2(C)C1CC[C@@H]2O[N+](=O)[O-] (some centres not stated)
- TGI (LOX IMVI melanoma): 28.9 µM
- TGI (SF-268 CNS): 29.7 µM
- TGI (786-0 renal): 28.4 µM
- TGI (ACHN renal): 22 µM
- TGI (U251 CNS): 27.5 µM
- TGI (MDA-N): 28.2 µM
- TGI (HCT-116 colon): 23.2 µM
- TGI (RXF 393 renal): 23.7 µM
- TGI (COLO 205 colon): 34.2 µM
- TGI (SN12C renal): 29.5 µM
- TGI (HOP-62 NSCLC): 15.5 µM

SMILES: COc1ccc(C2C(C#N)=C(S)N(C3OC(COC(C)=O)C(OC(C)=O)C(OC(C)=O)C3OC(C)=O)C(c3ccccc3)=C2C(C)=O)cc1 (configuration not stated)
- TGI (LOX IMVI melanoma): > 100 µM
- TGI (SF-268 CNS): > 100 µM
- TGI (786-0 renal): > 100 µM
- TGI (ACHN renal): > 100 µM
- TGI (U251 CNS): > 100 µM
- TGI (MDA-N): > 100 µM
- TGI (HCT-116 colon): > 100 µM
- TGI (RXF 393 renal): > 100 µM
- TGI (COLO 205 colon): > 100 µM
- TGI (SN12C renal): > 100 µM
- TGI (HOP-62 NSCLC): > 100 µM

Reference: PubChem BioAssay (NCI)
